Experimental data reported in ChEMBL document CHEMBL1128316, “Alkane-6,8-diol: inhibitor of tumor promotion in two-stage carcinogenesis in mouse skin” (1995).

Tests used:
[1] = Inhibitory ratio at 1.0 mg/ear; format: functional
Mus musculus = experiment: Inhibition of TPA-induced inflammatory ear edema in mice(compound was applied 30 min before TPA […],Ear thickness was determined 6 hr after TPA treatment); format: functional

Row | Compound | Ratio [1] | ID50 (Mus musculus) [mg ear-1]
1 | CCCCCCCCCCCCCCCCCCCC(O)CC(O)CCCCC (stereo unspecified) | <82 | 0.5
2 | CCCCCCCC(O)CC(O)CCCCC (stereo unspecified) | 23 | 
3 | CCCCCCCCCCCCCCCCCCCCCC(O)CC(O)CCCCC (stereo unspecified) | <85 | 0.4
4 | C[C@]12CCC(=O)C=C1CCC1[C@@H]2[C@@H](O)C[C@@]2(C)[C@H]1CC[C@]2(O)C(=O)CO (single isomer, unassigned) [HYDROCORTISONE] | <99 | 0.03
5 | COc1ccc2c(c1)c(CC(=O)O)c(C)n2C(=O)c1ccc(Cl)cc1 [INDOMETHACIN] | <96 | 0.3
6 | O=c1c(O)c(-c2ccc(O)c(O)c2)oc2cc(O)cc(O)c12 [QUERCETIN] | <40 | 1.6
